Values of other authors, collected in patent US8067434B2, “Compounds and methods for development of Ret modulators” (Plexxikon Inc., priority 2003, dated 2011).

Key:
[1] = test system: TT cells, with RetC634 mutant; details: TT cells in RPMI medium, varying concentrations
Ret kinase = details: incubation with the inhibitor
Ret transformed NIH3T3 = details: Ret transformed NIH3T3, treatment with inhibitor
Ret = details: DAergic neuron cultures

SMILES | cell growth [1] | further results
C=CCNC1=C2C[C@@H](C)C[C@H](OC)[C@H](O)[C@@H](C)/C=C(\C)[C@H](OC(N)=O)[C@@H](OC)/C=C\C=C(/C)C(=O)NC(=CC1=O)C2=O [allyl-geldanamycin] | inhibiting cell growth | –
Cc1ccc(NC(=O)c2ccc(CN3CCN(C)CC3)cc2)cc1Nc1nccc(-c2cccnc2)n1 [STI571] | inhibiting cell growth | –
CO[C@H]1[C@@H](OC)C[C@H](C)[C@@H](OC)C2=CC(=O)C=C(NC(=O)/C(C)=C/C=C\[C@H](OC)[C@@H](OC(N)=O)/C(C)=C/[C@@H]1C)C2=O [herbimycin A] | – | intracellular Ret kinase activity (Ret kinase): decreased; cellular phenotype (Ret transformed NIH3T3): reverted the cellular phenotype to a more untransformed flat morphology
O=c1c(-c2ccc(O)cc2)coc2cc(O)cc(O)c12 [genistein] | inhibiting cell growth | –
C[C@]12O[C@H](C[C@]1(O)C(=O)O)n1c3ccccc3c3c4c(c5c6ccccc6n2c5c31)CNC4=O [Compound K-252b, K-252b] | – | normal functioning of Ret in GDNF-induced differentiation (Ret): inhibited
